Common to all, as to test: Radiometric protein kinase assay (33PanQinase), Assay Condition A (thiol containing)
Type in all cases: biochemical

Test [1] addresses CDK12 wt/CycK (Homo sapiens (Human), UniProt Q9NYV4). The conditions noted are these: thiol containing (1.2 mM DTT), ATP 0.3 μM. As for the experimental part: (§1) The IC50 profile of test compounds was determined using three protein kinases.
(§2) The compounds were provided as pre-weighed powders in vials. The compounds were dissolved to 1×10^−02M by adding DMSO. 100 μl of each of the resulting stock solutions were transferred into column 2 of four 96 well “master plates”.
(§3) Prior to testing, the 1×10^−02M stock solutions in column 2 of the master plates were subjected to a serial, semi-logarithmic dilution using 100% DMSO as a solvent. […] Column 1 and 7 were filled with 100% DMSO as controls. Subsequently, 2×10 μl from each well of the serial diluted copy plates were aliquoted with a 96 channel pipettor into two identical sets of “compound dilution plates”.
(§4) In the process, 90 μl H2O were added to each well of a set of compound dilution plates. To minimize potential precipitation, the H2O was added to each plate only a few minutes before the transfer of the compound solutions into the assay plates. Each plate was shaken thoroughly, resulting in a “compound dilution plate/10% DMSO”.
(§5) For the assays, 5 μl solution from each well of the compound dilution plates/10% DMSO were transferred into the assay plates. The final volume of the assay was 50 μl. All compounds were tested at 10 final assay concentrations in the range from 1×10^−04M to 3×10^−09M, in singlicate. The final DMSO concentration in the reaction cocktails was 1% in all cases.
(§6) All protein kinases were expressed in Sf9 insect cells or in E. coli as recombinant GST-fusion proteins or His-tagged proteins, either as full-length or enzymatically active fragments. All kinases were produced from human cDNAs and purified by either GSH-affinity chromatography or immobilized metal. Affinity tags were removed from a number of kinases during purification. The purity of the protein kinases was examined by SDS-PAGE/Coomassie staining, the identity was checked by mass spectroscopy.
(§7) A radiometric protein kinase assay (^33PanQinase® Activity Assay) was used for measuring the kinase activity of the three protein kinases. All kinase assays were performed in 96-well FlashPlates™ from PerkinElmer (Boston, Mass., USA) in a 50 μl reaction volume. The reaction cocktail was pipetted in four steps in the following order: • 20 μl of assay buffer (standard buffer) • 5 μl of ATP solution (in H2O) • 5 μl of test compound (in 10% DMSO) • 20 μl enzyme/substrate mix
(§8) The reaction cocktails were incubated at 30° C. for 60 minutes. The reaction was stopped with 50 μl of 2% (v/v) H3PO4, plates were aspirated and washed two times with 200 μl 0.9% (w/v) NaCl. Incorporation of ^33Pi was determined with a microplate scintillation counter (Microbeta, Wallac). All assays were performed with a BeckmanCoulter/SAGIAN™ Core System.
(§9) The median value of the counts in column 1 (n=8) of each assay plate was defined as “low control”. This value reflects unspecific binding of radioactivity to the plate in the absence of a protein kinase but in the presence of the substrate. The median value of the counts in column 7 of each assay plate (n=8) was taken as the “high control”, i.e. full activity in the absence of any inhibitor. The difference between high and low control was taken as 100% activity.
(§10) As part of the data evaluation the low control value from a particular plate was subtracted from the high control value as well as from all 80 “compound values” of the corresponding plate. The residual activity (in %) for each well of a particular plate was calculated by using the following formula: Res. Activity (%)=100×[(cpm of compound−low control)/(high control−low control)]
(§11) The residual activities for each concentration and the compound IC50 values were calculated using Quattro Workflow V3.1.1 (Quattro Research GmbH, Munich, Germany). […] The fitting method used was a least-squares fit.

In test [2] the target is CDK2/CycA2 (Homo sapiens (Human), UniProt P24941). The settings on record: thiol containing (1.2 mM DTT), ATP 0.3 μM. As for the experimental part: as §1, §2, §3, §4, §5, §6, §7, §8, §9, §10, §11
Test [3] has as its target CDK7/CycH/MAT1 (Homo sapiens (Human), UniProt P50613). The settings on record: thiol containing (1.2 mM DTT), ATP 3.0 μM. As to the method: as §1, §2, §3, §4, §5, §6, §7, §8, §9, §10, §11

Sequence of CDK12 wt/CycK (Q9NYV4 whole entry): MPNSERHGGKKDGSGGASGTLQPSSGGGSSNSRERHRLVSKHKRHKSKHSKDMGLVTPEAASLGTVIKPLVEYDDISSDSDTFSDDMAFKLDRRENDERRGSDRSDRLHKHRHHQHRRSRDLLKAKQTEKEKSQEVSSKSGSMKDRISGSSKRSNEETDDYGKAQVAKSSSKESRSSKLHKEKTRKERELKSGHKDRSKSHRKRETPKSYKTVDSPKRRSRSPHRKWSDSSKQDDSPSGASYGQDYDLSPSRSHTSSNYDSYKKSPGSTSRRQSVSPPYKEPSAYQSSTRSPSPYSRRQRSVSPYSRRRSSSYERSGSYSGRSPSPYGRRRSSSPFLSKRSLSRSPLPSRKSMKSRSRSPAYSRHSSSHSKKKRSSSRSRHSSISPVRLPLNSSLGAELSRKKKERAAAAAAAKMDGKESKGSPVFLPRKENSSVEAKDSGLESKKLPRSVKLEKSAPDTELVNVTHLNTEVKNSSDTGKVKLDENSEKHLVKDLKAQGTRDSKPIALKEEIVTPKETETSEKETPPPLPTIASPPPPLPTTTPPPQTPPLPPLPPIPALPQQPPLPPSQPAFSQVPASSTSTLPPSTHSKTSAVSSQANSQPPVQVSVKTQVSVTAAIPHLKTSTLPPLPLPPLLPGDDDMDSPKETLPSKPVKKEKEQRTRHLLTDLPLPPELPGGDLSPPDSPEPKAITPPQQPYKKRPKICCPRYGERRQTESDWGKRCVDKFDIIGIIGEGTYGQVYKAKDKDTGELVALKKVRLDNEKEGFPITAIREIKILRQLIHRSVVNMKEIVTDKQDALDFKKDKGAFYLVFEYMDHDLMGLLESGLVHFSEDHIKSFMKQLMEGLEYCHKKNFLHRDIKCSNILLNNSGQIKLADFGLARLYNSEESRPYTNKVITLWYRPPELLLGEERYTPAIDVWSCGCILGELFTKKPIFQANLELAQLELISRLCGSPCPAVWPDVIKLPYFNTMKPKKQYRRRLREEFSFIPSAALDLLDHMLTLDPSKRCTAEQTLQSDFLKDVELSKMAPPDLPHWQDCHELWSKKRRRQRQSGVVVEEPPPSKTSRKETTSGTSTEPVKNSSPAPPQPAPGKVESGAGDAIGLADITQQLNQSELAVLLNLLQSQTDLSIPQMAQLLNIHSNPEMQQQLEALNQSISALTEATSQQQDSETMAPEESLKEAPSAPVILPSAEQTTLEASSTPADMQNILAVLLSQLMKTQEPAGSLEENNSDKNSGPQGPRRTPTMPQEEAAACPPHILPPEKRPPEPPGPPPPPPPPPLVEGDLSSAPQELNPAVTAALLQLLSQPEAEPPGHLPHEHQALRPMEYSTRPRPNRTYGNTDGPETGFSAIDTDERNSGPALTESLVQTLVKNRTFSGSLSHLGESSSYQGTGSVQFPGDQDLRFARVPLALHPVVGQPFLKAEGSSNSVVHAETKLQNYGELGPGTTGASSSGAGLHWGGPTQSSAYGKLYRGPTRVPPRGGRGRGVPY
Sequence of CDK12 wt/CycK (O75909 whole entry partner): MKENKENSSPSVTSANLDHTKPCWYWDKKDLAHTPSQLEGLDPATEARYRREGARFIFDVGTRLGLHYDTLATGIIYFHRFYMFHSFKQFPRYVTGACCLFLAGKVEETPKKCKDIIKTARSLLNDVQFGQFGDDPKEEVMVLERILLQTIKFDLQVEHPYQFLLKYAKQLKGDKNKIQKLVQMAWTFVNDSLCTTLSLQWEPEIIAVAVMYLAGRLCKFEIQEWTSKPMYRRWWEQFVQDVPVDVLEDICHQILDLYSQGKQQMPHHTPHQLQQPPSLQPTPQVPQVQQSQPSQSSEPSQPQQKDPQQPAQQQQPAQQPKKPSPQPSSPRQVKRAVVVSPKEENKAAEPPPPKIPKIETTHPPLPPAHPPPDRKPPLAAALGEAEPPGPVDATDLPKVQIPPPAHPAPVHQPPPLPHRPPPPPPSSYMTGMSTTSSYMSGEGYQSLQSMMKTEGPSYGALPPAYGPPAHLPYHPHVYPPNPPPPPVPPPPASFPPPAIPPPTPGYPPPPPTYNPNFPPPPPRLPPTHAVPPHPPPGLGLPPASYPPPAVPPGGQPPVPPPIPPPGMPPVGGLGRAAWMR
Sequence of CDK7/CycH/MAT1 (P50613 whole entry): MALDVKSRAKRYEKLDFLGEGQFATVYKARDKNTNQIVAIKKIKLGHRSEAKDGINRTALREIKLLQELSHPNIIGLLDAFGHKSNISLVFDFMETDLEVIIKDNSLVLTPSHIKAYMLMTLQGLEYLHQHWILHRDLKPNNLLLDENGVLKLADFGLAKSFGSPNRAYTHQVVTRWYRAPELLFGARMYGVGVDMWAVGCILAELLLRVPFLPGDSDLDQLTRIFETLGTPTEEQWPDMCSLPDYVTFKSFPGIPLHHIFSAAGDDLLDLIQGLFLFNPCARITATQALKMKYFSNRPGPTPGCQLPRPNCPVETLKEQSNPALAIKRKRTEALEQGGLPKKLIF
Sequence of CDK7/CycH/MAT1 (P51946 whole entry partner): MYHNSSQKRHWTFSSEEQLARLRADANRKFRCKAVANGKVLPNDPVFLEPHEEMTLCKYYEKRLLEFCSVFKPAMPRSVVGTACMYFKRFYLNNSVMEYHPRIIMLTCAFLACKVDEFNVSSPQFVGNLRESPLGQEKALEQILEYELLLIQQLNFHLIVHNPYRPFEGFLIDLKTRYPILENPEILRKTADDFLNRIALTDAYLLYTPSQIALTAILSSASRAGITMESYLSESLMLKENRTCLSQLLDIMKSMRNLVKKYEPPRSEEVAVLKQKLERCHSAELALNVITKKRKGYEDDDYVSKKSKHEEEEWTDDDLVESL
Sequence of CDK7/CycH/MAT1 (P51948 whole entry partner): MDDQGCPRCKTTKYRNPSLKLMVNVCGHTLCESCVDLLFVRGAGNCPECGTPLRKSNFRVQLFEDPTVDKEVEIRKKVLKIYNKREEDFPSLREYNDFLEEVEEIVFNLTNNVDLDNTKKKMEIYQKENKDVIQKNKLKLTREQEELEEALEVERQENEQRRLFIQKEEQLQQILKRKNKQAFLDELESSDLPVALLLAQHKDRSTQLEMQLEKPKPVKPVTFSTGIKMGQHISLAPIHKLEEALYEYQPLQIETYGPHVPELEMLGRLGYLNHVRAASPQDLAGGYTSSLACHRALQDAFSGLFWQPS

By IC50 is commonly meant the concentration needed to halve the response being measured. Low readings indicate greater potency in that assay, high ones weaker potency in that assay. In the case of `CCC(=O)Nc1ccc(C(=O)N2CC[C@@H](Nc3ncc4cc(F)ccc4n3)C2)cc1` [Example 46, (R)—N-(4-(3-((6-fluoroquinazolin-2-yl)amino)pyrrolidine-1-carbonyl)phenyl)propionamide], the figures for the IC50 in test [1], in test [2] and in test [3] were 100 to 1000 nM, 1000 to 10000 nM and 1000 to 10000 nM, respectively.
Turning to `CCC(=O)Nc1ccc(C(=O)N2CC[C@@H](Nc3ncc4cc(Cl)ccc4n3)C2)cc1` [Example 47, (R)—N-(4-(3-((6-chloroquinazolin-2-yl)amino)pyrrolidine-1-carbonyl)phenyl)propionamide], the results for the IC50 in test [1], in test [2] and in test [3] were 100 to 1000 nM, 1000 to 10000 nM and 1000 to 10000 nM, respectively.
Turning to `CCC(=O)Nc1ccc(C(=O)N2CC[C@@H](Nc3ncc4cc(OC)ccc4n3)C2)cc1` [Example 48, (R)—N-(4-(3-((6-methoxyquinazolin-2-yl)amino)pyrrolidine-1-carbonyl)phenyl)propionamide], the IC50 was in the range of 1000 to 10000 nM in test [1], 10000 to 30000 nM in test [2] and 30000 to 100000 nM in test [3].
The matching figures for `CCC(=O)Nc1ccc(C(=O)N2CC[C@@H](Nc3ncc4cc(C)ccc4n3)C2)cc1` [Example 49, (R)—N-(4-(3-((6-methylquinazolin-2-yl)amino)pyrrolidine-1-carbonyl)phenyl)propionamide]: 1000 to 10000 nM, 1000 to 10000 nM and 1000 to 10000 nM.
The matching figures for `CCC(=O)Nc1ccc(C(=O)N2CC[C@@H](Nc3ncc4ccncc4n3)C2)cc1` [Example 50, (R)—N-(4-(3-(pyrido[3,4-d]pyrimidin-2-ylamino)pyrrolidine-1-carbonyl)phenyl)propionamide]: 100 to 1000 nM, 1000 to 10000 nM and 1000 to 10000 nM.
The matching figures for `CCC(=O)Nc1ccc(C(=O)N2CC[C@@H](Nc3ncc4ccc(OC)cc4n3)C2)cc1` [Example 51, (R)—N-(4-(3-((7-methoxyquinazolin-2-yl)amino)pyrrolidine-1-carbonyl)phenyl)propionamide]: 100 to 1000 nM, 100 to 1000 nM and 100 to 1000 nM.
For the compound `CCC(=O)Nc1ccc(C(=O)N2CC[C@@H](Nc3ncc4ccc(S(C)(=O)=O)cc4n3)C2)cc1` [Example 52, (R)—N-(4-(3-((7-(methylsulfonyl)quinazolin-2-yl)amino)pyrrolidine-1-carbonyl)phenyl)propionamide], the IC50 lay within 100 to 1000 nM in test [1], 100 to 1000 nM in test [2] and 1000 to 10000 nM in test [3].
As to `CCC(=O)Nc1ccc(C(=O)N2CC[C@@H](Nc3ncc4ccc(Cl)cc4n3)C2)cc1` [Example 53, (R)—N-(4-(3-((7-chloroquinazolin-2-yl)amino)pyrrolidine-1-carbonyl)phenyl)propionamide], the results for the IC50 in test [1], in test [2] and in test [3] were 100 to 1000 nM, 100 to 1000 nM and 1000 to 10000 nM, respectively.
Consider `CCC(=O)Nc1ccc(C(=O)N2CC[C@@H](Nc3ncc4ccc(F)cc4n3)C2)cc1` [Example 54, (R)—N-(4-(3-((7-fluoroquinazolin-2-yl)amino)pyrrolidine-1-carbonyl)phenyl)propionamide], for which the values for the IC50 in test [1], in test [2] and in test [3] were 100 to 1000 nM, 1000 to 10000 nM and 1000 to 10000 nM, respectively.
For `CCC(=O)Nc1ccc(C(=O)N2CC[C@@H](Nc3ncc4ccc(C#N)cc4n3)C2)cc1` [Example 55, (R)—N-(4-(3-((7-cyanoquinazolin-2-yl)amino)pyrrolidine-1-carbonyl)phenyl)propionamide], the IC50 in test [1] lay in the range of 100 to 1000 nM; in test [2], 100 to 1000 nM; in test [3] it was 1000 to 10000 nM.
For the compound `CCC(=O)Nc1ccc(C(=O)N2CC[C@@H](Nc3ncc4ccc(C(=O)O)cc4n3)C2)cc1` [Example 56, (R)-2-((1-(4-propionamidobenzoyl)pyrrolidin-3-yl)amino)quinazoline-7-carboxylic Acid], the IC50 in test [1] was ≤ 100 nM; in test [2] it was ≤ 100 nM; in test [3], 100 to 1000 nM.
Consider `CCC(=O)Nc1ccc(C(=O)N2CC[C@@H](Nc3ncc4ccc(C(N)=O)cc4n3)C2)cc1` [Example 57, (R)-2-((1-(4-propionamidobenzoyl)pyrrolidin-3-yl)amino)quinazoline-7-carboxamide], for which the IC50 in test [1], in test [2] and in test [3] was ≤ 100 nM each time.
On to `CCC(=O)Nc1ccc(C(=O)N2CC[C@@H](Nc3ncc4ccc(C(=O)N(C)C)cc4n3)C2)cc1` [Example 59, (R)—N,N-dimethyl-2-((1-(4-propionamidobenzoyl)pyrrolidin-3-yl)amino)quinazoline-7-carboxamide], for which the IC50 in test [1] was ≤ 100 nM; in test [2] it was ≤ 100 nM; in test [3], 100 to 1000 nM.
For `CCC(=O)Nc1ccc(C(=O)N2CC[C@@H](Nc3ncc4ccc(=O)[nH]c4n3)C2)cc1` [Example 60, (R)—N-(4-(3-((7-oxo-7,8-dihydropyrido[2,3-d]pyrimidin-2-yl)amino)pyrrolidine-1-carbonyl)phenyl)propionamide], the IC50 in test [1] was ≤ 100 nM; in test [2], 1000 to 10000 nM; in test [3], 1000 to 10000 nM.
In the case of `C=CC(=O)Nc1ccc(C(=O)N2C[C@H](Nc3ncc4ccccc4n3)[C@@H](F)C2)cc1` [Example 63, N-(4-((3S,4S)-3-fluoro-4-(quinazolin-2-ylamino)pyrrolidine-1-carbonyl)phenyl)acrylamide], the results for the IC50 in test [1], in test [2] and in test [3] were 100 to 1000 nM, 10000 to 30000 nM and 1000 to 10000 nM, respectively.
The matching figures for `C=CC(=O)Nc1ccc(C(=O)N2CC(Nc3ncc4ccccc4n3)C2)cc1` [Example 64, N-(4-(3-(quinazolin-2-ylamino)azetidine-1-carbonyl)phenyl)acrylamide]: 1000 to 10000 nM, 1000 to 10000 nM and 10000 to 30000 nM.
In the case of `CN(C)C/C=C/C(=O)Nc1ccc(C(=O)N2CC[C@@H](Nc3ncc4ccccc4n3)C2)cc1` [Example 65, (R,E)-4-(dimethylamino)-N-(4-(3-(quinazolin-2-ylamino)pyrrolidine-1-carbonyl)phenyl)but-2-enamide], the half-inhibitory concentration (IC50) in test [1], in test [2] and in test [3] was 100 to 1000 nM throughout.
Regarding `CN(C)C/C=C/C(=O)Nc1ccc(C(=O)N2CCC[C@@H](Nc3ncc4ccccc4n3)C2)cc1` [Example 66, (R,E)-4-(dimethylamino)-N-(4-(3-(quinazolin-2-ylamino)piperidine-1-carbonyl)phenyl)but-2-enamide], the IC50 is 1000 to 10000 nM in test [1], 30000 to 100000 nM in test [2] and 30000 to 100000 nM in test [3].
Take `C=CC(=O)Nc1c(C)cc(C(=O)N2CC[C@@H](Nc3ncc4ccccc4n3)C2)cc1F` [Example 75, (R)—N-(2-fluoro-6-methyl-4-(3-(quinazolin-2-ylamino)pyrrolidine-1-carbonyl)phenyl)acrylamide]: the values for the IC50 in test [1], in test [2] and in test [3] were 1000 to 10000 nM, 10000 to 30000 nM and 10000 to 30000 nM, respectively.
`CC#CC(=O)Nc1ccc(C(=O)N2CC[C@@H](Nc3ncc4ccccc4n3)C2)cc1` [Example 77, (R)—N-(4-(3-(quinazolin-2-ylamino)pyrrolidine-1-carbonyl)phenyl)but-2-ynamide]: the IC50 in test [1] was ≤ 100 nM; in test [2], 100 to 1000 nM; in test [3] it was 100 to 1000 nM.
Take `C=CC(=O)Nc1ccc(C(=O)N2CC[C@@H](Nc3ncc4ccccc4n3)C2)c(C)c1` [Example 78]: the IC50 lay in the range of 100 to 1000 nM in test [1], 1000 to 10000 nM in test [2] and 1000 to 10000 nM in test [3].

The values above are taken from patent publication US11447493B2 (Kinnate Biopharma Inc., priority 2018, dated 2022).
